Columns and labels:
Type in all cases: in vivo
Lolium perenne (LOLPE) [1] = assay: Post-emergence herbicidal activity, glasshouse pot test; conditions: 312 h, rate 250 g/ha, evaluated after 13 days, read-out: Post-emergence activity, LOLPE (100=total damage to plant; 0=no damage to plant)
Protocol: (§1) Seeds of a variety of test species were sown in standard soil in pots. After cultivation for one day (pre-emergence) or after 8 days cultivation (post-emergence) under controlled conditions in a glasshouse (at 24/16° C., day/night; 14 hours light; 65% humidity), the plants were sprayed with an aqueous spray solution derived from the formulation of the technical active ingredient in acetone/water (50:50) solution containing 0.5% Tween 20 (polyoxyethelyene sorbitan monolaurate, CAS RN 9005-64-5). The test plants were then grown in a glasshouse under controlled conditions in a glasshouse (at 24/16° C., day/night; 14 hours light; 65% humidity) and watered twice daily. After 13 days for pre and post-emergence, the test was evaluated (100=total damage to plant; 0=no damage to plant).
(§2) Test plants: Setaria faberi (SETFA), Lolium perenne (LOLPE), Alopecurus myosuroides (ALOMY), Echinochloa crus-galli (ECHCG), and Avena fatua (AVEFA)

Avena fatua (AVEFA) [2] = assay: as above; conditions: 312 h, rate 250 g/ha, evaluated after 13 days, read-out: Post-emergence activity, AVEFA (100=total damage to plant; 0=no damage to plant)
Protocol: as §1, §2

[3] = tested on: Alopecurus myosuroides (ALOMY); assay: as above; conditions: 312 h, rate 250 g/ha, evaluated after 13 days, read-out: Post-emergence activity, ALOMY (100=total damage to plant; 0=no damage to plant)
Protocol: as §1, §2

[4] = tested on: Echinochloa crus-galli (ECHCG); assay: as above; conditions: 312 h, rate 250 g/ha, evaluated after 13 days, read-out: Post-emergence activity, ECHCG (100=total damage to plant; 0=no damage to plant)
Protocol: as §1, §2

Lolium perenne (LOLPE) [5] = assay: Pre-emergence herbicidal activity, glasshouse pot test; conditions: 312 h, Rate 250 g/ha, sprayed one day after sowing, evaluated after 13 days, 100=total damage to plant, 0=no damage to plant
Protocol: as §1, with “plant). Test plants: Setaria faberi (SETFA), Lolium perenne (LOLPE), Alopecurus myosuroides (ALOMY), Echinochloa crus-galli (ECHCG), and Avena fatua (AVEFA) Pre-Emergence Activity” for “plant).”

Avena fatua (AVEFA) [6] = assay: as above; conditions: 312 h, Rate 250 g/ha, sprayed one day after sowing, evaluated after 13 days, 100=total damage to plant, 0=no damage to plant
Protocol: as §1, with “plant). Test plants: Setaria faberi (SETFA), Lolium perenne (LOLPE), Alopecurus myosuroides (ALOMY), Echinochloa crus-galli (ECHCG), and Avena fatua (AVEFA) Pre-Emergence Activity” for “plant).”

[7] = tested on: Alopecurus myosuroides (ALOMY); assay: as above; conditions: 312 h, Rate 250 g/ha, sprayed one day after sowing, evaluated after 13 days, 100=total damage to plant, 0=no damage to plant
Protocol: as §1, with “plant). Test plants: Setaria faberi (SETFA), Lolium perenne (LOLPE), Alopecurus myosuroides (ALOMY), Echinochloa crus-galli (ECHCG), and Avena fatua (AVEFA) Pre-Emergence Activity” for “plant).”

[8] = tested on: Echinochloa crus-galli (ECHCG); assay: as above; conditions: 312 h, Rate 250 g/ha, sprayed one day after sowing, evaluated after 13 days, 100=total damage to plant, 0=no damage to plant
Protocol: as §1, with “plant). Test plants: Setaria faberi (SETFA), Lolium perenne (LOLPE), Alopecurus myosuroides (ALOMY), Echinochloa crus-galli (ECHCG), and Avena fatua (AVEFA) Pre-Emergence Activity” for “plant).”

| Structure (SMILES) | pest or weed control at 250 g/ha (Lolium perenne (LOLPE) [1]) [%] | pest or weed control at 250 g/ha (Avena fatua (AVEFA) [2]) [%] | pest or weed control at 250 g/ha [3] [%] | pest or weed control at 250 g/ha [4] [%] | pest or weed control at 250 g/ha (Lolium perenne (LOLPE) [5]) [%] | pest or weed control at 250 g/ha (Avena fatua (AVEFA) [6]) [%] | pest or weed control at 250 g/ha [7] [%] | pest or weed control at 250 g/ha [8] [%] |
| --- | --- | --- | --- | --- | --- | --- | --- | --- |
| CCc1ccc(-c2ccc(Cl)cc2Cl)cc1C1=C(O)CCC1=O [Compound T-14] | 30 | 30 | 30 | 70 | 30 | 0 | 10 | 50 |
| CCc1ccc(-c2ccc(Cl)c(F)c2)cc1C1=C(O)CCC1=O [Compound T-9] | 60 | 60 | 30 | 100 | 80 | 50 | 60 | 90 |
| CCc1ccc(-c2ccc3ccccc3c2)cc1C1=C(O)CCC1=O [Compound T-7] | 30 | 10 | 10 | 20 | 10 | 0 | 0 | 20 |
| CCc1ccc(-c2ccc(Cl)cc2C)cc1C1=C(O)CCC1=O [Compound T-4] | 30 | 0 | 50 | 70 | 60 | 10 | 50 | 50 |
| CCc1ccc(-c2cc(Cl)c(Cl)cc2Cl)cc1C1=C(O)CCC1=O [Compound T-16] | 60 | 80 | 50 | 80 | 20 | 0 | 0 | 50 |

Source: patent publication US8530388B2, “Cyclopentadione derived herbicides” (Syngenta Limited, priority 2009, dated 2013)
